pKi: −log10 of the molar value.
Biological target: human σ1 receptor (Homo sapiens (Human), UniProt Q99720)
Assay: Human σ1 receptor radioligand assay ([3H](+)-pentazocine, transfected HEK-293 membranes)
Details: binding to the σ1 receptor expressed as Ki, [3H](+)-pentazocine 5 nM
Experimental: Human σ1 Receptor Radioligand Assay
To investigate binding properties of test compounds to human σ1 receptor, transfected HEK-293 membranes and [^3H](+)-pentazocine (Perkin Elmer, NET-1056), as the radioligand, were used. The assay was carried out with 7 μg of membrane suspension, 5 nM of [^3H](+)-pentazocine in either absence or presence of either buffer or 10 μM Haloperidol for total and non-specific binding, respectively. Binding buffer contained Tris-HCl 50 mM at pH 8. Plates were incubated at 37° C. for 120 minutes. After the incubation period, the reaction mix was then transferred to MultiScreen HTS, FC plates (Millipore), filtered and plates were washed 3 times with ice-cold 10 mM Tris-HCL (pH 7.4). Filters were dried and counted at approximately 40% efficiency in a MicroBeta scintillation counter (Perkin-Elmer) using EcoScint liquid scintillation cocktail

Sequence of human σ1 receptor (Q99720 whole entry): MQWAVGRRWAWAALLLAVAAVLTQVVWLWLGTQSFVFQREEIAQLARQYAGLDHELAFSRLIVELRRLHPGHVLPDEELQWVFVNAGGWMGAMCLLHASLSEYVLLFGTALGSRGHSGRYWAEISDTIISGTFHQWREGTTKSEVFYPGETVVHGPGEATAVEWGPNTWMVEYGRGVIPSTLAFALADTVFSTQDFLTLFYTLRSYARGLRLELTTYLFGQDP

| pKi | Compound |
| --- | --- |
| > 7.00 | O=C1NC2(CCN(Cc3ccccc3)CC2)Cc2ccccc21 [Example 2, 1′-benzyl-2,4-dihydro-1H-spiro[isoquinoline-3,4′-piperidin]-1-one] |
| > 7.00 | c1ccc(CN2CCC3(CC2)Cc2ccccc2CN3)cc1 [Example 4, 1′-benzyl-2,4-dihydro-1H-spiro[isoquinoline-3,4′-piperidine]] |
| > 7.00 | CN1Cc2ccccc2CC12CCN(Cc1ccccc1)CC2 [Example 6, 1′-Benzyl-2-methyl-2,4-dihydro-1H-spiro[isoquinoline-3,4′-piperidine]] |

| Compound | pKi |
| --- | --- |
| O=C1NC2(CCN(CCc3ccccc3)CC2)Cc2ccccc21 [Example 1, 1′-(2-Phenylethyl)-2,4-dihydro-1H-spiro[isoquinoline-3,4′-piperidin]-1-one] | > 7.00 |
| CN1Cc2ccccc2CC12CCN(CCN1CCOCC1)CC2 [Example 7, 4-(2-(2-Methyl-2,4-dihydro-1H-spiro[isoquinoline-3,4′-piperidine]-1′-yl)ethyl)morpholine] | > 6.30 |
